Key:
[1] = Dissolution behavior, dialysis diffusion method; assay type: physicochemical; conditions: 37° C., dialysis bag 3,500 D, 4 h
Protocol: The dissolution behavior of FA-Lipo@Til NCs in Example 3 was measured in different media (water, SGF, and SIF) at 37° C. using the dialysis diffusion method. 1 mL of Til raw material and Til NC preparation (containing 1 mg/mL of Til) were placed in a dialysis bag with a molecular weight cut-off of 3,500 D, which was then placed in 50 mL of dissolution medium and then placed in an oscillator with a frequency of 100 rpm at 37° C. Samples were taken at 1 min, 2 min, 3 min, 5 min, 10 min, 15 min, 30 min, 45 min, 60 min, 90 min, 120 min, 180 min, and 240 min, respectively. After taking the samples, the corresponding volume of medium was supplemented, and the samples were centrifuged (12,000 rpm, 10 min) and determined by HPLC. […] FA-Lipo@Til NCs were released more slowly than Til NCs. At 4 h, approximately 45% (in SGF) and 35% (in SIF) of Til in Lipo@Til NCs and FA-Lipo@Til NCs were released, while the cumulative release from Til NCs exceeded 55% (in SGF) and 65% (in SIF) within 4 h.

Caco-2 cell monolayer = Caco-2 cell monolayer transport; assay type: in vitro ADME; conditions: Til by HPLC on basolateral side, 50 μg to 100 μg Til
Protocol: The FA-Lipo@Til NCs obtained in Example 3 were tested using a Caco-2 cell culture monolayer model, Caco-2 cells were collected with a cell plating density of 1×10^5 […]. Cells were inoculated on the upper layer of the Transwell plate, 500 μL of diluted cell suspension was added to each well, and 600 μL of blank MEM medium was added to the lower layer, and the plates were placed in an incubator for culture; after 21 days of continuous culture, appropriate cell wells were selected, the upper and lower layers of the Transwell plate were replaced with HBSS balancing solution, and the plates were balanced in the incubator for 30 min. After removing the buffer, different concentrations of FA-Lipo@Til NCs (all diluted to 300 μL with HBSS containing 10% FBS) were added into the well, 100 μL of sample was taken from the lower layer of the Transwell plate at a specific time point, and an equal amount of HBSS buffer was supplemented, and the samples collected at different time points were used to detect the content of Til by HPLC. The cumulative release amount and Papp of the preparation were calculated. […] The transport amount of raw material Til through the monolayer was the lowest, while Til NCs were transported to the basolateral side over time, which was about 3 times that of the former at 4 h. […] FA ligands enhanced the internalization and transport of nanoparticles.

atherosclerotic plaques = experiment: In vivo pharmacodynamic evaluation in atherosclerosis model (ORO, H&E, Masson staining); design: species or system ApoE-/- mice; conditions: p.o., 4 mg/kg once a day, 12 weeks, Model group 51.53%
Protocol: AS model mice and initial treatment plan: ApoE^-/- mice were fed a high-fat diet for 12 weeks and then randomly divided into 5 groups: Model group (normal saline group); Crude Til group (p.o., 4 mg/kg); Til NCs group (p.o., 4 mg/kg); Lipo@Til NCs group (p.o., 4 mg/kg); FA-Lipo@Til NCs group in Example 3 (p.o., 4 mg/kg). The Control group was replaced by C57BL/6J mice fed with ordinary diet in the same cycle. The drug was administered orally once a day for 12 consecutive weeks, ApoE--mice continued to eat a high-fat diet throughout the treatment, and body weight changes were recorded 2 times a week. After 12 weeks of continuous administration, the mice were fasted but allowed to drink water 12 h before the experiment. Their eyeballs were removed to collect whole blood serum, and then the mice were dissected, their heart was exposed, and a small incision was made in the right atrium, and the whole body was perfused with pre-cooled saline until the outflowing fluid became clear. […]
ORO staining of the entire aorta: fat tissue stained bright red by ORO could interfere with the observation of plaques, such that the fat tissue around the blood vessels needed to be removed with fine forceps under a stereomicroscope. […] After photographing, the images were measured using ImageJ, and the percentage of plaques in the intima area was calculated to correct for differences in body size. […]

[2] = 37° C.; cited from earlier work
[3] = cited from earlier work

acacetin-7-glucoside [Til]
cumulative release of Til in SGF ([1]; SGF): about 4% | cumulative release of Til in SIF ([1]; SIF): about 4% | transport through the Caco-2 cell monolayer (Caco-2 cell monolayer): lowest | average plaque area of the aorta (ORO staining) (atherosclerotic plaques): reduced | solubility in aqueous media [2]: 1.57 µg/mL | absolute oral bioavailability [3]: 1.350±0.710%
